Measurements: PubChem BioAssay AID1259371 (The Scripps Research Institute Molecular Screening Center, 2018)
Active and inactive are the calls of the source. No rule for the calls is given here.

Target: Microphthalmia-associated transcription factor (Homo sapiens) (UniProt O75030)
Experiment: compounds blocking human MITF signal – biochemical, AlphaScreen, dose response (AID 1259371)
Settings: AlphaScreen biochemical MITF assay, signal inhibition

Sequence of Microphthalmia-associated transcription factor (Homo sapiens) (O75030 whole entry, looked up): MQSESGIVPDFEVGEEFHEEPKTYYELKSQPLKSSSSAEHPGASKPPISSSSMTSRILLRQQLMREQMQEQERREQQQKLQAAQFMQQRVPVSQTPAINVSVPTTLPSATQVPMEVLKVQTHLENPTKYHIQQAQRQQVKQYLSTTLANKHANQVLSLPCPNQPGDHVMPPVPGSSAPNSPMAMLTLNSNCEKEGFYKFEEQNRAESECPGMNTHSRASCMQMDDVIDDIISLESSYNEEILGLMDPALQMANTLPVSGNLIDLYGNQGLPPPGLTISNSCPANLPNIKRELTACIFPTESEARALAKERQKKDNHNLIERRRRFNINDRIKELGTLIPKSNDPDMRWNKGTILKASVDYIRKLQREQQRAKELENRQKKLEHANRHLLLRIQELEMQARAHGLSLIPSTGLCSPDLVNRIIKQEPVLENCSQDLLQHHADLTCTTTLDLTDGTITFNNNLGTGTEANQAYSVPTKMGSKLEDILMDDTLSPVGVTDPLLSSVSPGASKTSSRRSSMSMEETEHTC

For `Cc1oc(C(=O)O)cc1CSCCSCc1cc(C(=O)O)oc1C`, the IC50 was > 2.16 µM (inactive).

Compound `O=C(NNC(=O)c1cc(-c2ccco2)nc2ccccc12)NC1CCCCC1` has an IC50 of 0.126 µM.

For `C=CCNC(=O)COC(=O)c1cc(-c2ccco2)nc2ccccc12`, the IC50 was > 2.31 µM (inactive).

`C=C1c2cccc(O)c2C(O)=C2C(=O)[C@]3(O)C(O)=C(C(N)=O)C(=O)[C@@H](N(C)C)[C@@H]3[C@@H](O)[C@H]12` gave an IC50 of 0.0399 µM.

For `CN(C)C1C(=O)C(C(N)=O)=C(O)C2(O)C(=O)C3=C(O)c4c(O)cccc4C(C)(O)C3CC12` (stereo not drawn), the IC50 was > 6.48 µM (inactive).

`CCOc1ccc(CN2CCN(Cc3cccnc3)CC2)cc1` was tested, and the IC50 was > 5.78 µM (inactive).

`O=C(O)CCCNC(=O)/C=C/c1ccco1` was tested, and the IC50 was > 2.16 µM (inactive).

In the case of `COc1ccc(C)cc1NS(=O)(=O)c1ccc2c(c1)CCC(=O)N2`, the IC50 is reported as “inactive”.

For `O=c1c(O)c(-c2ccc(O)cc2O)oc2cc(O)cc(O)c12`, the IC50 was “inactive”.

With `Cc1[nH][nH]c(=O)c1C(c1ccc([N+](=O)[O-])o1)c1c(C)[nH][nH]c1=O` the IC50 was > 6.48 µM (inactive).

In the case of `COc1ccc(CN2CCN(Cc3cccc(Cl)c3)CC2)cc1Br`, the IC50 is reported as “inactive”.

In the case of `CC(=O)Nc1ccc(N2C(=O)c3ccccc3C2(O)Cc2ccccc2)cc1` (stereo not drawn), the IC50 is reported as > 6.48 µM (inactive).

For `C=CCc1cc(C)ccc1OCCCCn1ccnc1`, the IC50 was > 6.48 µM (inactive).

With `CC(Oc1ccc2c(C(F)(F)F)cc(=O)oc2c1)C(=O)NN` (stereo not drawn) the IC50 was “inactive”.

Work on `O=c1[nH]c(/C=C/c2ccco2)nc(O)c1[N+](=O)[O-]` yielded an IC50 of 0.284 µM.

`CC[C@@H]1NC(=O)[C@H]2CN(C(=O)NCc3ccccc3)CCN2C1=O` gave an IC50 of 0.436 µM.

For `O=C1OC(c2cccc([N+](=O)[O-])c2)=N/C1=C\c1ccc(OCc2ccccc2)cc1`, the IC50 was > 4.62 µM (inactive).

With `COc1ccc(S(=O)(=O)N2CCN(Cc3ccccc3[N+](=O)[O-])CC2)cc1` the IC50 was > 4.33 µM (inactive).

`CCN(C(=O)C1COc2ccccc2O1)C12CC3CC(CC(C3)C1)C2` (stereo not drawn) was tested, and the IC50 was “inactive”.

With `COc1cccc(C(=O)N2CCN(Cc3cccc(Cl)c3)CC2)c1` the IC50 was > 4.8 µM (inactive).

In the case of `Cn1cc(-c2nc(Nc3ccc(-n4cnc(N5CCOCC5)n4)cc3)ncc2Br)cn1`, the IC50 is reported as “inactive”.

Work on `CCC(C)C(=O)NCc1nnc2n1CCN(C/C=C/c1ccco1)CC2` (stereo not drawn) yielded an IC50 of 0.57 µM.

In the case of `Cc1cc2c(c(=O)[nH]1)C(=O)O/C2=C\c1ccco1`, the IC50 is reported as 0.0153 µM.

In the case of `COc1ccc2c(c1)C1NC(=S)N(c3cccc(C)c3)C(C)(O2)C1C(=O)Nc1ccc(C)cc1C` (stereo not drawn), the IC50 is reported as > 5.71 µM (inactive).

In the case of `O=C(CSc1nsc(SCC(=O)Nc2ccc(Cl)c(Cl)c2)n1)Nc1ccc(Cl)c(Cl)c1`, the IC50 is reported as “inactive”.

`O=C(c1ccc2nc(-c3ccco3)c(-c3ccco3)nc2c1)N1CCSCC1` showed an IC50 of 0.222 µM.

`CN(CCC#N)C(=O)COC(=O)c1c2c(nc3ccccc13)/C(=C/c1ccco1)CC2` was tested, and the IC50 was “inactive”.

`COc1ccc2nc(-c3ccco3)c(-c3ccco3)nc2c1` was tested, and the IC50 was “inactive”.

With `O=C(O)CCC(NCc1ccco1)C(=O)O` (stereo not drawn) the IC50 was 0.806 µM.

Compound `Cc1ccc([N+](=O)[O-])cc1S(=O)(=O)Nc1ccc(Nc2ncccc2[N+](=O)[O-])cc1` has an IC50 of 0.423 µM.

With `Nc1cc2c(S(=O)(=O)O)cc(S(=O)(=O)O)cc2cc1S(=O)(=O)O` the IC50 was > 6.48 µM (inactive).

In the case of `O=C(O)c1coc(CNC(=O)c2cocc2C(=O)O)c1`, the IC50 is reported as “inactive”.

With `CCN1CCc2c(sc(NC(=S)NC(=O)/C=C/c3ccco3)c2C(N)=O)C1` the IC50 was 0.726 µM.

`C/C=C\C1=C(C(=O)O)N2C(=O)C(NC(=O)C(N)c3ccc(O)cc3)C2SC1` (stereo not drawn) was tested, and the IC50 was > 6.48 µM (inactive).

`O=C(O)c1cccc(N2C(=O)CC(Nc3ccc(N4CCOCC4)cc3)C2=O)c1` (stereo not drawn) gave an IC50 of 0.242 µM.

In the case of `CCN1CCN(CCOCCOc2ccc(F)cc2)CC1`, the IC50 is reported as > 6.48 µM (inactive).

Compound `S=c1[nH]nc(-c2ccncc2)n1/N=C/C=C/c1ccco1` has an IC50 of 0.207 µM.

Compound `NC1(C(Cl)(Cl)Cl)Oc2ccccc2O1` has an IC50 of 0.232 µM.

`O=[N+]([O-])c1cc(C=Nc2ccc(N3CCOCC3)cc2)c(O)c([N+](=O)[O-])c1` showed an IC50 of 0.753 µM.

`COc1ccc(OC)c(NC(=O)c2cc3ccc(O)cc3oc2=Nc2ccc(C(=O)O)cc2)c1` was tested, and the IC50 was 0.981 µM.

`CCN(CC)c1ncnc2c1ncn2[C@@H]1O[C@H](COP(=O)(O)OP(=O)(O)C(Br)(Br)P(=O)(O)O)C(O)[C@@H]1O` (stereo partly drawn) showed an IC50 of 0.175 µM.

In the case of `CCC(C)c1ccccc1OCCNCCN(C)C` (stereo not drawn), the IC50 is reported as > 6.48 µM (inactive).

Compound `Cc1c(NC(=O)C(C)OC(=O)c2cc3c(s2)CCC3)c(=O)n(-c2ccccc2)n1C` (stereo not drawn) has an IC50 of 0.953 µM.

For `N/C(=N\[N+](=O)[O-])N/N=C\c1ccc(-c2ccc(O)c(C(=O)O)c2)o1`, the IC50 was 0.129 µM.

With `COc1cc(N2CCOCC2)ccc1Nc1cc(NC(C)(C)c2ccccc2)c(C(F)(F)F)cn1` the IC50 was “inactive”.

`CNC(=O)COc1cc(-c2cn[nH]c2)ccc1NC(=O)C1COc2ccc(OC)cc2C1` (stereo not drawn) was tested, and the IC50 was “inactive”.

`CCc1ccc(NC(=O)CS(=O)CC(=O)NCCCc2ccccc2)cc1` (stereo not drawn) was tested, and the IC50 was > 6.48 µM (inactive).

With `O=C(NCc1cccnc1)c1ccnc(-c2cccs2)c1` the IC50 was “inactive”.

With `Cc1cc(OCCOCCN2CCNCC2)ccc1Cl` the IC50 was > 6.48 µM (inactive).

In the case of `CC(O)(CNCCN1CCOCC1)COc1ccc(Cl)cc1` (stereo not drawn), the IC50 is reported as “inactive”.

For `O=C1c2c(O)cccc2Cc2cccc(O)c21`, the IC50 was 0.232 µM.

Work on `CC(C)NC(=O)c1cccc(NC(=O)Nc2ccc(-c3ncnc4[nH]cc(Cl)c34)cc2)c1` yielded an IC50 of 0.676 µM.

`O=C(NCc1cccnc1)c1cccc(-c2cccs2)c1` was tested, and the IC50 was > 6.64 µM (inactive).

`CCOC(=O)Cc1[nH]nc2c1C1(C(=O)N(CC)c3ccccc31)C(C#N)=C(N)O2` (stereo not drawn) was tested, and the IC50 was > 6.48 µM (inactive).

For `COc1ccc(OC)c(CN2CCN(Cc3ccc(F)cc3)CC2)c1`, the IC50 was > 6.11 µM (inactive).

`O=C(Cn1ncn2cccc2c1=O)N1CCc2ccccc2C1` was tested, and the IC50 was > 6.48 µM (inactive).

`NC(=O)c1cc(NC(=O)COC(=O)COc2cccc(C(F)(F)F)c2)cc(C(N)=O)c1` was tested, and the IC50 was “inactive”.

For `CCOC(=O)C1C2NC(=S)N(CC)C1(C)Oc1ccc(Br)cc12` (stereo not drawn), the IC50 was > 6.31 µM (inactive).
